System: MV-4-11 cells
Assay: Gene expression microarray analysis (Affymetrix PrimeView) and GSEA
Type: cell-based, human
Set-up: RFU PODN (11730768_x_at) / Fold change /veh PODN (11730768_x_at) / RFU LINC00158 (11744669_a_at) / Fold change /veh LINC00158 (11744669_a_at) / RFU DUSP10 (11751237_a_at) / Fold change /veh DUSP10 (11751237_a_at) / RFU ID3 (11757404_x_at) / Fold change /veh ID3 (11757404_x_at) / RFU PLEKHG5 (11737974_s_at) / Fold change /veh PLEKHG5 (11737974_s_at) / RFU LRRC4B (11730491_at) / Fold change /veh LRRC4B (11730491_at) / RFU GIMAP4 (11747438_a_at) / Fold change /veh GIMAP4 (11747438_a_at) / RFU KRT8 (11758183_x_at) / Fold change /veh KRT8 (11758183_x_at) / RFU CNN1 (11734310_a_at) / Fold change /veh CNN1 (11734310_a_at) / RFU VPS37D (11726825_at) / Fold change /veh VPS37D (11726825_at) / RFU C10orf10 (11716522_x_at) / Fold change /veh C10orf10 (11716522_x_at) / RFU KIR2DL2 /// KIR2DL4 /// KIR2DL5A /// KIR2DL5B /// KIR2DS1 /// KIR2DS2 /// KIR2DS3 /// KIR2DS4 /// KIR3DL3 /// KIR3DL3 /// KIR3DS1 (11738374_at) / Fold change /veh KIR2DL2 /// KIR2DL4 /// KIR2DL5A /// KIR2DL5B /// KIR2DS1 /// KIR2DS2 /// KIR2DS3 /// KIR2DS4 /// KIR3DL3 /// KIR3DL3 /// KIR3DS1 (11738374_at) / RFU C1QL1 (11718748_at) / Fold change /veh C1QL1 (11718748_at) / RFU TMPRSS4 (11747572_a_at) / Fold change /veh TMPRSS4 (11747572_a_at) / RFU HAMP (11756126_x_at) / Fold change /veh HAMP (11756126_x_at) / RFU RNFT2 (11725882_a_at) / Fold change /veh RNFT2 (11725882_a_at) / RFU NR4A2 (11747474_a_at) / Fold change /veh NR4A2 (11747474_a_at) / RFU ABCC12 (11746883_a_at) / Fold change /veh ABCC12 (11746883_a_at) / RFU TMEM136 (11760407_x_at) / Fold change /veh TMEM136 (11760407_x_at) / RFU CLDN22 /// WWC2 (11732394_at) / Fold change /veh CLDN22 /// WWC2 (11732394_at) / RFU HLA-DPB1 (11760878_x_at) / Fold change /veh HLA-DPB1 (11760878_x_at) / RFU SPINT1 (11716480_a_at) / Fold change /veh SPINT1 (11716480_a_at) / RFU GAP43 (11754022_s_at) / Fold change /veh GAP43 (11754022_s_at) / RFU A4GNT (11735810_at) / Fold change /veh A4GNT (11735810_at) / RFU PRB3 (11715151_x_at) / Fold change /veh PRB3 (11715151_x_at) / RFU TUBB4B (11761932_at) / Fold change /veh TUBB4B (11761932_at) / RFU CAPN14 (11732068_a_at) / Fold change /veh CAPN14 (11732068_a_at) / RFU TMCC2 (11721928_a_at) / Fold change /veh TMCC2 (11721928_a_at) / RFU IRGQ (11745062_a_at) / Fold change /veh IRGQ (11745062_a_at) / RFU FAM174B (11720279_a_at) / Fold change /veh FAM174B (11720279_a_at) / RFU TMPRSS4 (11748680_a_at) / Fold change /veh TMPRSS4 (11748680_a_at) / RFU FAM212B (11763350_a_at) / Fold change /veh FAM212B (11763350_a_at) / RFU PLEKHG5 (11743358_a_at) / Fold change /veh PLEKHG5 (11743358_a_at) / RFU ZSCAN30 (11745921_a_at) / Fold change /veh ZSCAN30 (11745921_a_at) / RFU CMKLR1 (11741424_a_at) / Fold change /veh CMKLR1 (11741424_a_at) / RFU LOC101060620 /// MAPK8IP1 (11723275_at) / Fold change /veh LOC101060620 /// MAPK8IP1 (11723275_at) / RFU SPTSSB (11747773_x_at) / Fold change /veh SPTSSB (11747773_x_at) / RFU PRSS12 (11739890_at) / Fold change /veh PRSS12 (11739890_at) / RFU BIN1 (11741810_x_at) / Fold change /veh BIN1 (11741810_x_at) / RFU WNT11 (11732464_a_at) / Fold change /veh WNT11 (11732464_a_at) / RFU C10orf10 (11716521_a_at) / Fold change /veh C10orf10 (11716521_a_at) / RFU C5orf56 (11738089_at) / Fold change /veh C5orf56 (11738089_at) / RFU CYB561 (11721691_x_at) / Fold change /veh CYB561 (11721691_x_at) / RFU ANKRD19P (11752326_a_at) / Fold change /veh ANKRD19P (11752326_a_at) / RFU OR2T12 /// OR2T33 /// OR2T8 (11738714_s_at) / Fold change /veh OR2T12 /// OR2T33 /// OR2T8 (11738714_s_at) / RFU VCAN (11748164_a_at) / Fold change /veh VCAN (11748164_a_at) / RFU JSRP1 (11732532_at) / Fold change /veh JSRP1 (11732532_at) / RFU KRTAP10-11 (11738290_x_at) / Fold change /veh KRTAP10-11 (11738290_x_at) / RFU MYO3A (11730013_a_at) / Fold change /veh MYO3A (11730013_a_at) / RFU EBF3 (11725865_a_at) / Fold change /veh EBF3 (11725865_a_at) / RFU CAMK2N1 (11719241_x_at) / Fold change /veh CAMK2N1 (11719241_x_at) / RFU C5orf56 (11738088_a_at) / Fold change /veh C5orf56 (11738088_a_at) / RFU OLFML3 (11715873_a_at) / Fold change /veh OLFML3 (11715873_a_at) / RFU LOC100653217 /// NTM (11731650_a_at) / Fold change /veh LOC100653217 /// NTM (11731650_a_at) / RFU MAPK11 (11762145_a_at) / Fold change /veh MAPK11 (11762145_a_at) / RFU FIZ1 (11724087_x_at) / Fold change /veh FIZ1 (11724087_x_at) / RFU OASL (11726364_x_at) / Fold change /veh OASL (11726364_x_at) / RFU SOX15 (11748057_x_at) / Fold change /veh SOX15 (11748057_x_at) / RFU CD79A (11719716_a_at) / Fold change /veh CD79A (11719716_a_at) / RFU HIST1H1D (11736915_at) / Fold change /veh HIST1H1D (11736915_at) / RFU CASKIN2 (11723855_a_at) / Fold change /veh CASKIN2 (11723855_a_at) / RFU LOC730098 (11760151_x_at) / Fold change /veh LOC730098 (11760151_x_at) / RFU OR4N2 (11742367_at) / Fold change /veh OR4N2 (11742367_at) / RFU PRRT2 (11749266_a_at) / Fold change /veh PRRT2 (11749266_a_at) / RFU SNX32 (11753110_a_at) / Fold change /veh SNX32 (11753110_a_at) / RFU CDHR5 (11726645_a_at) / Fold change /veh CDHR5 (11726645_a_at) / RFU RCAN1 (11760418_a_at) / Fold change /veh RCAN1 (11760418_a_at) / RFU FAM167A (11723789_a_at) / Fold change /veh FAM167A (11723789_a_at) / RFU FAM26E (11764081_at) / Fold change /veh FAM26E (11764081_at) / RFU ISYNA1 (11749810_s_at) / Fold change /veh ISYNA1 (11749810_s_at) / RFU ACY1 (11761880_at) / Fold change /veh ACY1 (11761880_at) / RFU 11764098_at / Fold change /veh 11764098_at / RFU SAMD14 (11745864_x_at) / Fold change /veh SAMD14 (11745864_x_at) / RFU NPB (11741838_a_at) / Fold change /veh NPB (11741838_a_at) / RFU TMPRSS6 (11731388_a_at) / Fold change /veh TMPRSS6 (11731388_a_at) / RFU KRTAP10-2 (11738614_at) / Fold change /veh KRTAP10-2 (11738614_at) / RFU ARHGAP8 /// PRR5-ARHGAP8 (11727945_x_at) / Fold change /veh ARHGAP8 /// PRR5-ARHGAP8 (11727945_x_at) / RFU KRTAP5-7 /// NADSYN1 (11734609_at) / Fold change /veh KRTAP5-7 /// NADSYN1 (11734609_at) / RFU RASL12 (11751679_a_at) / Fold change /veh RASL12 (11751679_a_at) / RFU CDKN2B (11736163_a_at) / Fold change /veh CDKN2B (11736163_a_at) / RFU PRF1 (11729649_at) / Fold change /veh PRF1 (11729649_at) / RFU, ZNF638 /// ZNF638-IT1 / Fold change vs veh, ZNF638 /// ZNF638-IT1 / RFU, PANK3 / Fold change vs veh, PANK3 / RFU, SH3YL1 / Fold change vs veh, SH3YL1 / RFU, ZEB2 / Fold change vs veh, ZEB2 / RFU, NRIP1 / Fold change vs veh, NRIP1 / RFU, PTTG1IP / Fold change vs veh, PTTG1IP / RFU, CAPN2 / Fold change vs veh, CAPN2 / RFU, MED14 / Fold change vs veh, MED14 / RFU, SNORA58 / Fold change vs veh, SNORA58 / RFU, C1orf63 / Fold change vs veh, C1orf63 / RFU, LRRFIP1 / Fold change vs veh, LRRFIP1 / RFU, NDUFAF7 / Fold change vs veh, NDUFAF7 / RFU, SLC12A2 / Fold change vs veh, SLC12A2 / RFU, IBTK / Fold change vs veh, IBTK / RFU, ESF1 / Fold change vs veh, ESF1 / Fold change vs veh, TMEM50B / RFU, TAOK1 / Fold change vs veh, TAOK1 / RFU, ACBD3 / Fold change vs veh, ACBD3 / RFU, TMA16 / Fold change vs veh, TMA16 / RFU, RWDD3 / Fold change vs veh, RWDD3 / RFU, BCAT1 / Fold change vs veh, BCAT1 / RFU, EDEM3 / Fold change vs veh, EDEM3 / RFU, TMEM33 / Fold change vs veh, TMEM33 / RFU, WDR75 / Fold change vs veh, WDR75 / RFU, AHCTF1 / Fold change vs veh, AHCTF1 / RFU, TFRC / Fold change vs veh, TFRC / RFU, ZDHHC17 / Fold change vs veh, ZDHHC17 / RFU, NOM1 / Fold change vs veh, NOM1 / RFU, ARL8B / Fold change vs veh, ARL8B / RFU, ZBTB11 / Fold change vs veh, ZBTB11 / RFU, TAMM41 / Fold change vs veh, TAMM41 / RFU, KIAA1704 /// LOC100996395 / Fold change vs veh, KIAA1704 /// LOC100996395 / RFU, ING1 / Fold change vs veh, ING1 / RFU, TRMT61B / Fold change vs veh, TRMT61B / RFU, FUBP3 / Fold change vs veh, FUBP3 / RFU, TP53 / Fold change vs veh, TP53 / RFU, TNKS2 / Fold change vs veh, TNKS2 / RFU, ZFP14 / Fold change vs veh, ZFP14 / RFU, ACTR2 / Fold change vs veh, ACTR2 / RFU, PPP3R1 / Fold change vs veh, PPP3R1 / RFU, PIK3R1 / Fold change vs veh, PIK3R1 / RFU, HNRNPA1 / Fold change vs veh, HNRNPA1 / RFU, RNF170 / Fold change vs veh, RNF170 / RFU, ZNF28 / Fold change vs veh, ZNF28 / RFU, RNGTT / Fold change vs veh, RNGTT / RFU, OGT / Fold change vs veh, OGT / RFU, BRD1 / Fold change vs veh, BRD1 / RFU, MARS / Fold change vs veh, MARS / RFU, ZNF655 / Fold change vs veh, ZNF655 / RFU, FAHD1 / Fold change vs veh, FAHD1 / RFU, BDP1 / Fold change vs veh, BDP1 / RFU, LRRCC1 / Fold change vs veh, LRRCC1 / RFU, ARID1A / Fold change vs veh, ARID1A / RFU, ZNF146 / Fold change vs veh, ZNF146 / RFU, ZNF330 / Fold change vs veh, ZNF330 / RFU, GPN3 / Fold change vs veh, GPN3 / RFU, C9orf123 / Fold change vs veh, C9orf123 / RFU, N4BP2L2 / Fold change vs veh, N4BP2L2 / RFU, ARFIP1 / Fold change vs veh, ARFIP1 / RFU, FAM179B / Fold change vs veh, FAM179B / RFU, BCL10 / Fold change vs veh, BCL10 / RFU, UHRF1BP1L / Fold change vs veh, UHRF1BP1L / RFU, BET1 / Fold change vs veh, BET1 / RFU, CNOT2 / Fold change vs veh, CNOT2 / RFU, ZNF268 / Fold change vs veh, ZNF268 / Fold change vs veh, ZNF507 / RFU, DGCR2 / Fold change vs veh, DGCR2 / RFU, WDSUB1 / Fold change vs veh, WDSUB1 / Fold change vs veh, HSP90B1 /// MIR3652 / RFU, ADSS / Fold change vs veh, ADSS / RFU, GK / Fold change vs veh, GK / RFU, ZNF148 / Fold change vs veh, ZNF148 / RFU, TAF9 / Fold change vs veh, TAF9 / RFU, SLC1A5 / Fold change vs veh, SLC1A5 / RFU, SLMO2 / Fold change vs veh, SLMO2 / RFU, ABCC4 / Fold change vs veh, ABCC4 / RFU, LOC101060439 /// RAP1B / Fold change vs veh, LOC101060439 /// RAP1B / RFU, RFX7 / Fold change vs veh, RFX7 / RFU, GTPBP10 / Fold change vs veh, GTPBP10 / RFU, CNEP1R1 / Fold change vs veh, CNEP1R1 / RFU, BIVM-ERCC5 /// ERCC5 / Fold change vs veh, BIVM-ERCC5 /// ERCC5 / RFU, ILF3 / Fold change vs veh, ILF3 / RFU 11762660_at / Fold change /veh 11762660_at / RFU VCAN (11757783_s_at) / Fold change /veh VCAN (11757783_s_at) / RFU DDX43 (11728927_at) / Fold change /veh DDX43 (11728927_at) / RFU KRT8 (11758188_x_at) / Fold change /veh KRT8 (11758188_x_at) / RFU NKD1 (11759106_at) / Fold change /veh NKD1 (11759106_at) / RFU SRD5A1 (11742802_a_at) / Fold change /veh SRD5A1 (11742802_a_at) / RFU TPSAB1 /// TPSB2 (11721975_s_at) / Fold change /veh TPSAB1 /// TPSB2 (11721975_s_at) / RFU GSTM3 (11746129_a_at) / Fold change /veh GSTM3 (11746129_a_at) / RFU IL23R (11737362_x_at) / Fold change /veh IL23R (11737362_x_at) / RFU TMEM51 (11727254_a_at) / Fold change /veh TMEM51 (11727254_a_at) / RFU PIWIL2 (11732686_x_at) / Fold change /veh PIWIL2 (11732686_x_at) / RFU ORM1 (11744905_x_at) / Fold change /veh ORM1 (11744905_x_at) / RFU CCDC152 (11743942_at) / Fold change /veh CCDC152 (11743942_at) / RFU ECM1 (11717891_a_at) / Fold change /veh ECM1 (11717891_a_at) / RFU IL23R (11748794_a_at) / Fold change /veh IL23R (11748794_a_at) / RFU TNFAIP8L3 (11732012_x_at) / Fold change /veh TNFAIP8L3 (11732012_x_at) / RFU MBOAT4 (11741988_at) / Fold change /veh MBOAT4 (11741988_at) / RFU 11764193_at / Fold change /veh 11764193_at / RFU TMEM53 (11763286_at) / Fold change /veh TMEM53 (11763286_at) / RFU MAGEB2 (11727129_at) / Fold change /veh MAGEB2 (11727129_at) / RFU TMEM200A (11744735_a_at) / Fold change /veh TMEM200A (11744735_a_at) / RFU CCDC152 (11751479_a_at) / Fold change /veh CCDC152 (11751479_a_at) / RFU FAM211A (11726209_a_at) / Fold change /veh FAM211A (11726209_a_at) / RFU RGS16 (11746705_a_at) / Fold change /veh RGS16 (11746705_a_at) / RFU VCAN (11755009_s_at) / Fold change /veh VCAN (11755009_s_at) / RFU RHOB (11743442_s_at) / Fold change /veh RHOB (11743442_s_at) / RFU RGS16 (11720943_a_at) / Fold change /veh RGS16 (11720943_a_at) / RFU RGS16 (11720944_at) / Fold change /veh RGS16 (11720944_at) / RFU, VPS4B / Fold change vs veh, VPS4B / RFU, CREB1 / Fold change vs veh, CREB1 / RFU, DNAJC13 / Fold change vs veh, DNAJC13 / RFU, GNAQ / Fold change vs veh, GNAQ / RFU, CDK5R1 / Fold change vs veh, CDK5R1 / RFU, ZRANB3 / Fold change vs veh, ZRANB3 / RFU, CUL4A / Fold change vs veh, CUL4A / RFU, CCNY / Fold change vs veh, CCNY / RFU, UFL1 / Fold change vs veh, UFL1 / RFU, COG3 / Fold change vs veh, COG3 / RFU, DIAPH2 / Fold change vs veh, DIAPH2 / RFU, SKA2 / Fold change vs veh, SKA2 / RFU, AFF3 / Fold change vs veh, AFF3 / RFU, LMF1 / Fold change vs veh, LMF1 / RFU, IPO11 / Fold change vs veh, IPO11 / RFU, DFFB / Fold change vs veh, DFFB / RFU, FOXP1 / Fold change vs veh, FOXP1 / RFU, CARD8 / Fold change vs veh, CARD8 / RFU, STRN3 / Fold change vs veh, STRN3 / RFU, ADK / Fold change vs veh, ADK / RFU, RASSF2 / Fold change vs veh, RASSF2 / RFU, WIPF1 / Fold change vs veh, WIPF1 / RFU, LARP1B / Fold change vs veh, LARP1B / RFU, RASA1 / Fold change vs veh, RASA1 / RFU, RB1 / Fold change vs veh, RB1 / RFU, PPFIA1 / Fold change vs veh, PPFIA1 / RFU, MAT2A / Fold change vs veh, MAT2A / RFU, CCT5 / Fold change vs veh, CCT5 / RFU, WDR92 / Fold change vs veh, WDR92 / RFU, CUX1 / Fold change vs veh, CUX1 / RFU, TTC7A / Fold change vs veh, TTC7A / RFU, TMEM135 / Fold change vs veh, TMEM135 / RFU, DEPTOR / Fold change vs veh, DEPTOR / RFU, CPM / Fold change vs veh, CPM / RFU, DNAJB6 / Fold change vs veh, DNAJB6 / RFU, CACNA2D3 / Fold change vs veh, CACNA2D3 / RFU, DTX4 / Fold change vs veh, DTX4 / RFU, TFCP2 / Fold change vs veh, TFCP2 / RFU, GMCL1 /// GMCL1P1 / Fold change vs veh, GMCL1 /// GMCL1P1 / RFU, AEBP2 / Fold change vs veh, AEBP2 / RFU, SNHG1 /// SNORD22 /// SNORD25 /// SNORD26 /// SNORD27 /// SNORD28 /// SNORD29 /// SNORD31 / Fold change vs veh, SNHG1 /// SNORD22 /// SNORD25 /// SNORD26 /// SNORD27 /// SNORD28 /// SNORD29 /// SNORD31 / Fold change (Aza/veh), C12orf56 (ProbeSet 11735607_a_at) / Fold change (ACY-1035/veh), C12orf56 (ProbeSet 11735607_a_at) / Fold change (Aza/veh), FGFR1OP (ProbeSet 11751329_s_at) / Fold change (ACY-1035/veh), FGFR1OP (ProbeSet 11751329_s_at) / Fold change (Aza/veh), VPS36 (ProbeSet 11739960_a_at) / Fold change (ACY-1035/veh), VPS36 (ProbeSet 11739960_a_at) / RFU SYPL1 (11715823_x_at) / Fold change /veh SYPL1 (11715823_x_at) / RFU IGFBP7 (11715501_s_at) / Fold change /veh IGFBP7 (11715501_s_at) / RFU REEP3 (11722064_at) / Fold change /veh REEP3 (11722064_at) / RFU IGLL1 (11728026_x_at) / Fold change /veh IGLL1 (11728026_x_at): dose or concentration left out as unconfirmed
Conditions: MV-4-11 cells, 48 hours

Nc1ncn([C@@H]2O[C@H](CO)[C@@H](O)[C@H]2O)c(=O)n1 [azacitidine]
RFU ABCC12 (11746883_a_at): 6.52 RFU
